Patent US20050063956A1, “Method and device for attracting insects” (Colorado State University Research Foundation, priority 1998, published 2005)

Tests used:
[1] = test system: western corn root worm larvae; test: Glass bead Y-tube choice test, corn volatiles versus CO2 (Example 19); design: species or system Diabrotica virgifera virgifera LeConte; details: in vivo
Description: Bioassay Procedure. All bioassays were choice tests conducted using a vertical glass “Y” tube apparatus filled with 3-mm glass beads (Bernklau and Bjostad 1998) (FIG. 62). Volatile compounds were prepared in 35-ml polyethylene syringes (cat no. 106-0490, Sherwood Medical, St. Louis, Mo.) and a syringe pump (Sage Model 355, Fisher Scientific, Pittsburgh, Pa.) was used to provide, slow (1 ml per min) consistent delivery of the compounds into each choice arm of the bioassay apparatus. Twenty newly-hatched larvae (less than 12-hours-old) were used for each bioassay. Non-diapausing larvae were used for all experiments unless otherwise indicated below. For each choice test a minimum of 10 replicates were conducted.
Corn Headspace Versus CO2. Using the glass bead bioassay (Bernklau and Bjostad 1998) the headspace over germinating corn seeds was tested in a choice test against a series of CO2 concentrations to determine if corn volatiles (including CO2) were more attractive to the larvae than CO2 alone. A 35-ml syringe was filled with the headspace over 3-day-old germinating corn seedlings by means of a 25-cm length of slender Teflon tubing inserted into a hole drilled into the cover of the tub containing the corn seedlings.
Three different concentrations of CO2 were tested on the control side of the choice test. In the 1 st test, we used ambient room air on the control side, which contains a lower concentration of CO2 than the corn headspace (approximately 1.0 mmol/mol). In the 2nd test, we used GC-MS-SIM to match the CO2 concentration in the syringe on the control side to be equal to that measured in the syringe containing corn headspace. In the 3rd test, the syringe on the control side of the choice test contained a CO2 concentration twice that measured in the corn headspace. To prepare each of these control concentrations, a 2nd 35-ml polyethylene syringe was partially filled (approximately 5 ml) from a tank containing pure (100%) CO2 using a glass syringe. Headspace from a plastic tub containing only moist germination paper was drawn into the syringe to fill it, mixing the air and CO2 thoroughly at the same time. The gas mixtures in the polyethylene syringes were allowed to equilibrate for 15 minutes, and GC-MS-SIM was used to verify the CO2 concentrations in both syringes prior to each bioassay.
Corn Headspace Versus CO2 with Diapausing Larvae. The larvae used in our studies were from a colony of nondiapausing western corn root worm that has been maintained in our laboratory since 1986. We wished to determine if diapausing western corn root worm larvae would respond differently to corn volatiles than the colony larvae. Using the same method described above, the headspace over germinating corn seeds was tested in a choice test against a series of CO2 concentrations with western corn root worm larvae from a diapausing strain.
Corn Headspace-Coated Glass Beads versus CO2. In the previous experiments, corn volatiles were introduced into the bottom of the Y-tube and carried through the glass beads by the airstream from the syringe pump. We also tested the possibility that some volatile compounds may have been removed from the airstream by coating out on the glass beads on the bottom of the Y-tube where they would not be available for the larvae to detect at the choice point near the middle of the Y-tube. […]

Diabrotica larvae = details: Jewett and Bjostad (1996); cited from earlier work
[2] = test system: neonate Western Corn root worm larvae; test: Larval bioassay in soil tubs with granules; design: species or system Diabrotica species; details: in vivo
Description: The bioassay comprises a laboratory test conducted in tubs (30×15×8 cm) filled with 3000 grams of soil. A single corn seed is placed 2 cm from one end of the tub. After the corn plant is 4 days old, 30 neonate Western Corn root worm larvae are introduced into the soil in the end of the tub opposite the corn seedings. Larvae are given 24 hours to attempt to locate and attack the corn plant. Larvae are recovered from the corn plant. For granule tests, a measured amount (0.25 gram of prepared granule is mixed into 1.0 kg. of soil (20% moisture). This soil is used to fill the center ⅓ of the bioassay tub.

[3] = test system: corn root worm neonate larvae; test: Repellence test, larvae staying on paper (FIG. 78); type: in vivo; details: in the presence of a feeding stimulus

Row | Structure (SMILES) | role in attraction of larvae to corn roots (conclusion) [1] | other results
1 | CCCCC/C=C\C/C=C\CCCCCCCC(=O)O [linoleic acid] | not involved in attraction of western corn root worm larvae | –
2 | CCCCCCCCCCCCCCCCCC(=O)O [stearic acid] | not involved in attraction of western corn root worm larvae | –
3 | ClCCl [dichloromethane] | – | attractiveness to larvae (Diabrotica larvae): attractive to Diabrotica larvae
4 | CCCCCCCC/C=C\CCCCCCCC(=O)O [oleic acid] | not involved in attraction of western corn root worm larvae | –
5 | COc1ccc2[nH]c(=O)oc2c1 [MBOA, 6-methoxy-2-benzoxazolinone] | not involved in attraction of western corn root worm larvae | –
6 | CN1COCN(Cc2cnc(Cl)s2)/C1=N\[N+](=O)[O-] [Thiamethoxam] | – | effect on control of larvae provided by attractant granules [2]: greatly improved; repellence to neonate larvae [3]: does not repel corn root worm neonate larvae
